Reference: patent publication US11952365B2, “Anti-viral compounds” (Aligos Therapeutics, Inc., priority 2020, dated 2024)
Like-named read-outs stand apart in the source and are kept apart here.

Key:
[1] = target: HRV3C (Human rhinovirus 14, UniProt P03303); assay: HRV3C protease assay (duplex, SAMDI-MS); type: biochemical, HRV; details: 30 mins preincubation
Outline: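 Compounds are preincubated 30 min with the protease pair before substrate addition, and cleavage proceeds 30 min at room temperature. Product peptides are measured by SAMDI-MS relative to internal standards, with IC50 obtained from a four-parameter fit.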

[2] = test system: human beta-coronavirus OC43; assay: microbe, parasite or virus in culture; type: cell-based; details: OC43 in HeLa cells, 6 days at 33° C., class symbols, read-out: EC50
[3] = test system: HeLa cells; assay: Cytotoxicity plates without OC43 virus (cell-titer-glo); type: cell-based, human; details: class symbols
Outline: (§1)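 Run as a virus-free counterpart of the OC43 cytopathic-effect assay. Attached HeLa cells received compound dilutions in EMEM with 2% FBS and were kept 6 days at 33 °C. Cell viability was then measured by CellTiter-Glo luminescence.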

[4] = target: T1, human cathepsin L (Homo sapiens, UniProt P07711); assay: cathepsin L assay; type: biochemical; details: 10 pM human cathepsin L, Z-FR-AMC 2 μM, class symbols
T1 construct: purchased R&D Systems
Outline: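 Reactions began by adding 2 μM (final) Z-FR-AMC substrate to 10 pM human cathepsin L that had been preincubated 30 min with inhibitor. Kinetic AMC fluorescence at 355/460 nm over 30 min at 2-min intervals; four-parameter fitting gave IC50 values.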

[5] = target: T2, 3CLpro (Severe acute respiratory syndrome coronavirus 2, UniProt P0DTD1); assay: SARS-CoV-2 3CLpro protease assay (duplex, SAMDI-MS); type: biochemical; parameters: For the duplex assay, 3CLpro and HRV3C was added; details: 3CLpro, 30 mins preincubation, class symbols; read-out: SARS-Cov-2 IC50
[6] = test system: SARS-CoV-2-GHB-03021/2020; assay: SARS-CoV-2 Infection Model in Huh7 Cells; type: cell-based; details: SARS-CoV-2, day 4 p.i., MTS, class symbols
[7] = test system: Huh7 cells; details: read-out: Huh-7 (CC50), MTS, numeric bounds
[8] = test system: Vero E6-eGFP cells; details: read-out: VeroE6 + CP (CC50); Vero E6-eGFP cells with CP-100356, absence of virus, MTS; numeric bounds
[9] = Cytotoxicity plates without OC43 virus (cell-titer-glo); type: cell-based, human; details: human; HeLa cells without OC43 virus, class symbols
Outline: as §1

[10] = test system: SARS-CoV-2-GHB-03021/2020; assay: microbe, parasite or virus in culture; type: cell-based; details: read-out: VeroE6 + CP (EC50)
[11] = in vitro; details: human
[12] = in vitro; details: African green monkey, VeroE6 + CP (CC50), Vero E6-eGFP cells with CP-100356, absence of virus, MTS
[13] = test system: SARS-CoV-2; details: cited from earlier work
[14] = target: T2, 3CLpro; details: cited from earlier work
[15] = HRV3C, bound, read-out: HRV IC50
[16] = HRV3C, class symbols, read-out: HRV IC50
[17] = Betacoronavirus 1, OC43, HeLa, 144 h
[18] = Severe acute respiratory syndrome coronavirus 2, Huh-7, 96 h
[19] = Severe acute respiratory syndrome coronavirus 2, Vero C1008, 96 h

Chain of HRV3C (P03303 1538-1719): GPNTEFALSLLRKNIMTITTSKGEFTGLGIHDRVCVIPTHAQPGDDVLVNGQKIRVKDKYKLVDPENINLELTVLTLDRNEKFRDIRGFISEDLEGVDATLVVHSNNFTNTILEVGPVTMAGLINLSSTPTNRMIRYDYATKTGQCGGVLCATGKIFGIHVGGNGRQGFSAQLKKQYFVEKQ
T1 sequence (P07711 114-333): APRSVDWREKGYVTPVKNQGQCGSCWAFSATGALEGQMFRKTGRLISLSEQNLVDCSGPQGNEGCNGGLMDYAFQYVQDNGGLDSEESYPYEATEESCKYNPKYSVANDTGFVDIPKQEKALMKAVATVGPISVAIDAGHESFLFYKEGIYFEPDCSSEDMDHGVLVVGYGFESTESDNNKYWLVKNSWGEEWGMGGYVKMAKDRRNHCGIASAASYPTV

| Molecule | EC50 [2] | CC50 [3] | IC50 [4] | IC50 [5] | IC50 [1, 16] | EC50 [2, 17] | CC50 at 6 days [9] | EC50 [6, 18] | EC50 [10, 19] | CC50 [11] | CC50 ([12]; numeric bounds) | also measured |
| --- | --- | --- | --- | --- | --- | --- | --- | --- | --- | --- | --- | --- |
| COc1cccc2[nH]c(C(=O)N3Cc4ccccc4[C@H]3C(=O)N[C@@H](C[C@@H]3CCCNC3=O)C(=O)CO)cc12 [Compound 73_1] | 0.1 to 1 µM | > 10 µM | ≥ 10 µM | 0.02 to 0.2 µM | – | – | – | – | – | – | – | IC50 [1, 15]: > 10 µM |
| COc1cccc2[nH]c(C(=O)N3Cc4ccccc4[C@@H]3C(=O)N[C@@H](C[C@@H]3CCCNC3=O)C(=O)CO)cc12 [Compound 73_2] | 10 to 100 µM | > 10 µM | ≥ 10 µM | 2 to 20 µM | – | – | – | – | – | – | – | IC50 [1, 15]: > 10 µM |
| O=C1NCC[C@H]1C[C@H](NC(=O)[C@@H]1[C@H]2CCC[C@H]2CN1C(=O)c1cc2c([nH]1)C1CCC2C1)C(=O)CO (stereo partly drawn) [Compound 157, (1S,3aR,6aS)-2-{3-azatricyclo[5.2.1.0^{2,6}]deca-2(6),4-diene-4-carbonyl}-N-[(2S)-4-hydroxy-3-oxo-1-[(3S)-2-oxopyrrolidin-3-yl]butan-2-yl]-hexahydro-1H-cyclopenta[c]pyrrole-1-carboxamide] | 0.1 to 1 µM | > 10 µM | ≥ 10 µM | 0.02 to 0.2 µM | – | – | – | – | – | – | – | EC50 ([6]; read-out: Huh-7 (EC50)): 1 to 10 µM; CC50 [7]: > 50 µM; CC50 [8]: > 50 µM |
| Cc1cccc2[nH]c(C(=O)N3CCC4(CC4)C[C@H]3C(=O)N[C@@H](C[C@@H]3CCNC3=O)C(=O)C(=O)NC3CC3)cc12 [Compound 169] | – | – | 1 to 10 µM | 0.02 to 0.2 µM | 0.2 to 2 µM | 1 to 10 µM | > 10 µM | 1 to 10 µM | 1 to 10 µM | > 10 µM | > 50 µM | – |
| O=C(NC1CC1)C(=O)[C@H](C[C@@H]1CCNC1=O)NC(=O)[C@@H]1CC2(CCN1C(=O)c1cc3c(C(F)(F)F)cccc3[nH]1)CC2 [Compound 170] | – | – | 0.1 to 1 µM | 0.02 to 0.2 µM | 0.2 to 2 µM | 1 to 10 µM | > 10 µM | 1 to 10 µM | 10 to 100 µM | > 10 µM | > 50 µM | – |
| COc1ccc2[nH]c(C(=O)N3CCC4(CC4)C[C@H]3C(=O)N[C@@H](C[C@@H]3CCNC3=O)C(=O)C(=O)NC3CC3)cc2c1 [Compound 171] | – | – | ≥ 10 µM | 0.02 to 0.2 µM | – | 1 to 10 µM | > 10 µM | 1 to 10 µM | 1 to 10 µM | > 10 µM | > 50 µM | IC50 ([1]; HRV IC50, HRV3C, class symbols): 2 to 20 µM |
| Cn1c(C(=O)N2CCC3(CC3)C[C@H]2C(=O)N[C@@H](C[C@@H]2CCNC2=O)C(=O)C(=O)NC2CC2)cc2ccccc21 [Compound 172] | – | – | 1 to 10 µM | < 0.02 µM | 2 to 20 µM | 1 to 10 µM | > 10 µM | < 1 µM | < 1 µM | > 10 µM | > 50 µM | – |
| CC(C)OCCNC(=O)C(=O)[C@H](C[C@@H]1CCNC1=O)NC(=O)[C@@H]1[C@H]2CCC[C@H]2CN1C(=O)c1cc2c(Cl)cc(Cl)cc2[nH]1 [Compound 173] | – | – | ≥ 10 µM | 0.02 to 0.2 µM | – | 0.1 to 1 µM | > 10 µM | 1 to 10 µM | < 1 µM | 1 to 10 µM | > 50 µM | IC50 [1, 15]: > 10 µM |
| O=C(NCCOCC1CCCC1)C(=O)[C@H](C[C@@H]1CCNC1=O)NC(=O)[C@@H]1[C@H]2CCC[C@H]2CN1C(=O)c1cc2c(Cl)cc(Cl)cc2[nH]1 [Compound 174] | – | – | 1 to 10 µM | 0.02 to 0.2 µM | 2 to 20 µM | 0.1 to 1 µM | > 10 µM | < 1 µM | < 1 µM | 1 to 10 µM | – | CC50 ([12]; class symbols): 1 to 10 µM |
| CN1CCN(C(=O)N[C@@H](Cc2ccccc2)C(=O)N[C@H](/C=C/S(=O)(=O)c2ccccc2)CCc2ccccc2)CC1 [Compound K117777] | – | – | – | – | – | – | – | – | – | – | – | inhibition of SARS-CoV-2 ([13]; in VeroE6, A549-ACE2 and/or HeLa-ACE2): potent inhibition; antiviral effect ([13]; when TMPRSS2 was expressed in A549-ACE2): abolished; inhibitory effect on the 3CLpro [14]: lacks an inhibitory effect |
| N-benzyl-3-[[(2S)-1-(1H-indole-2-carbonyl)pyrrolidin-2-yl]formamido]-2-oxo-4-[(3S)-2-oxopyrrolidin-3-yl]butanamide [Compound 3] | 10 to 100 µM | > 10 µM | – | 20 to 100 µM | 2 to 20 µM | – | – | – | – | – | – | EC50 [10]: > 100 µM; CC50 [8]: > 100 µM |
